The values below come from PMC8122790, “Chemical Constituents of Cassia abbreviata and Their Anti-HIV-1 Activity” (Molecules, 2021).

Like-named read-outs stand apart in the source and are kept apart here.

One series relates to HIV-1 IIIB. Nature of the series: microbe, parasite or virus in culture. The note with it: read-out: IC50 HIV-1 Infection. As to the method: The crude extract of Cassia abbreviata and all isolated compounds were assessed for their anti-HIV activity in MT4 cells infected by the reference strain HIV-1 IIIB (Figure 3). […] Enfuvirtide and Plerixafor are entry inhibitors for positive controls.
(§1) MT4 cells were obtained through the NIH AIDS Reagent Program and cultured in RPMI 1640 (Lonza, Wijchen, the Netherlands) supplemented with 10% heat-inactivated fetal bovine serum (Lonza, the Netherlands) and 2mM L-glutamine (Invitrogen, Gosselies, Belgium). MT-4 cells were incubated with the crude extract of Cassia abbreviatta or the tested compounds alone to assess cytotoxicity, or HIV-1 IIIB alone or a mixture of the tested extract and compounds and HIV-1 IIIB viruses to assess protection against HIV-1 infection. After five days, protection from viral infection and the cytotoxicity were evaluated in parallel using (3-(4,5-dimethylthiazol-2-yl)-2,5-diphenyltetrazolium bromide (MTT, Sigma, Liège, Belgium) by measuring OD540 and OD690 using a POLARstar Omega Plate Reader (BMG Labtech, Ortenberg, Germany). Data were normalized to cells without treatment. Values of OD540−OD690 were calculated to determine IC50 values in Prism. The entry inhibitors, enfuvirtide, and AMD3100 (Sigma Aldrich, Liège, Belgium), were used as positive controls.

A short description of series [1]: Cytotoxicity in MT4 cells (MTT). Type of series: cell-based. The conditions noted are these: for IC50 at 5 days: human. As to the method:
as §1, with “After five days, protection from viral infection and the cytotoxicity were evaluated in parallel using (3-(4,5-dimethylthiazol-2-yl)-2,5-diphenyltetrazolium bromide (MTT, Sigma, Liège, Belgium) by measuring OD540 and OD690 using a POLARstar Omega Plate Reader (BMG Labtech, Ortenberg, Germany).” left out

The mark [2] stands for this setting: Human immunodeficiency virus 1, IIIB, MT4, 120 h.
The mark [3] stands for this setting: MT4 cells incubated with compound alone, five days, MTT, read-out: IC50 Cytotoxicity.

On to Enfuvirtide, for which, in the series on HIV-1 IIIB (MT4 cells infected by reference strain HIV-1 IIIB, five days, MTT, mean ± SD, three experiments), the IC50 is 0.0096 ± 0.001 µM.
With `O=C1c2c(O)cc(O)cc2OC(c2ccc(O)c(O)c2)C1O` (stereo not shown) [Taxifolin (8), taxifolin], the IC50 with HIV-1 IIIB (setting [2]) is 49 ± 5.02 µM. Besides, in series [1] (setting [3]), the concentration for half-maximal inhibition (IC50) at 5 days is over 333 µM.
Consider enfuvirtide, for which the IC50 in series [1] (MT4 cells incubated with compound alone, five days, MTT) is over 1 µM.
Regarding `CCCCCCCCCCCCCCCC(=O)O` [Palmitic acid (28), Palmitic acid], in the series with HIV-1 IIIB (setting [2]), the IC50 stood at 16 ± 3.04 µM. Besides, the IC50 at 5 days in series [1] was over 333 µM.
Regarding `Oc1ccc([C@H]2Oc3cc(O)ccc3[C@@H](c3c(O)cc(O)c4c3O[C@H](c3ccc(O)cc3)[C@H](O)C4)[C@@H]2O)cc1` [Guibourtinidol-(4α→8)-epiafzelechin (4), guibourtinidol-(4α→8)-epiafzelechin], the IC50 with HIV-1 IIIB (setting [2]) stood at 15.4 ± 9.09 µM. Besides, in series [1], the IC50 at 5 days is over 333 µM.
The matching figures for `c1cc(CN2CCCNCCNCCCNCC2)ccc1CN1CCCNCCNCCCNCC1` [Plerixafor (AMD3100), Plerixafor, reference compound]: 0.075 ± 0.009 µM and over 1 µM.
On the same counts, the results for `Oc1cc(O)cc(/C=C/c2ccc(O)c(O)c2)c1` [Piceatannol (22), piceatannol] are 3.58 ± 0.27 µM and over 333 µM.
The matching figures for `CC12OC(=O)CC1C1Oc3c(c(O)cc(O)c3C3c4ccc(O)cc4OC(c4ccc(O)cc4)C3O)CC1O2` (stereo not drawn) [Cassiabrevone (1), guibourtinidol (4α→8) planchol A]: 11.9 ± 2.14 µM and over 333 µM.
With `CC1(C)CC[C@]2(C(=O)O)CC[C@]3(C)C(=CC[C@@H]4[C@@]5(C)CC[C@H](O)C(C)(C)[C@@H]5CC[C@]43C)[C@@H]2C1` [Oleanolic acid (17), oleanolic acid], the IC50 in the series on HIV-1 IIIB (setting [2]) was 7.95 ± 2.57 µM. The IC50 at 5 days in series [1] (setting [3]) was over 333 µM.

One may read the IC50 as the midpoint of a concentration-inhibition curve.
